{"source": "patent EP4379060A1", "about": "“HIGH-EFFICIENCY PRODUCTION OF HYDROXYECTOINE” (Universität des Saarlandes, priority 2022, dated 2024)", "key": {"C. glutamicum [1]": {"test_system": "C. glutamicum", "experiment": "Quantification of intracellular ectoines and free amino acids in cells grown with ectoine", "type": "cell-based, Corynebacterium glutamicum ATCC 13032", "conditions": "37°C, 10 h", "protocol": "Cultivation of C. glutamicum in shake flask. Cultures of C. glutamicum were incubated in baffled shake flasks (10% filling volume) in an orbital shaker at 230 rpm (Multitron, Infors AG, Bottmingen, Switzerland). For pre-culturing, cells were first grown overnight in complex BHI medium using a single colony from a 2-day pre-incubated BHI agar plate as inoculum. Subsequently, cells were harvested (8500 xg, 5 min, RT), washed once with minimal medium, and used to inoculate a second pre-culture in minimal glucose medium. The second pre-culture was then harvested during the exponential phase (8500 xg, 5 min, RT), washed once, and used to inoculate the main culture, again in minimal medium. The temperature was set to 30°C for precultures and 37°C for main cultures. All experiments were conducted as triplicate.\nQuantification of intracellular metabolites. To quantify intracellular amino acids and ectoines, 2 mL of mid-exponentially growing cells were sampled by fast filtration (cellulose nitrate filter, 0.2 µm, 47 mm, Sartorius, Göttingen, Germany) (Bolten CJ, Kiefer P, Letisse F, Portais J-C, Wittmann C: Sampling for Metabolome Analysis of Microorganisms. Analytical chemistry 2007, 79:3843-3849.), including twice washing of the cells on the filter with two volumes of 2.5% NaCl. The filters were then transferred into cups prefilled with a 220 µM α-amino butyric acid solution as internal standard for later quantification. […] The obtained supernatants were collected for analysis, and intracellular amino acids were quantified by HPLC (Hans MA, Heinzle E, Wittmann C: Quantification of intracellular amino acids in batch cultures of Saccharomyces cerevisiae. Appl Microbiol Biotechnol 2001, 56:776-779.).\nQuantification of ectoine and hydroxyectoine. Concentrations of ectoine and hydroxyectoine were analyzed by HPLC (Agilent Series 1290 Infinity, Agilent, Santa Clara, CA, USA). […] External standards were applied for quantification.\nQuantification of amino acids. Amino acid levels of cell lysates were quantified using HPLC (Agilent Series 1290 Infinity, Agilent, Santa Clara, CA, USA) with α-amino butyric acid as internal standard. For this, the analytes were derivatized with ortho-phthalaldehyde and 9-fluorenylmethyl chloroformate and were separated and quantified as described previously (Krömer J, Fritz M, Heinzle E, Wittmann C: In vivo quantification of intracellular amino acids and intermediates of the methionine pathway in Corynebacterium glutamicum. Analytical biochemistry 2005, 340:171-173.).\nFor this purpose, the inventors extracted and quantified intracellular ectoine, hydroxyectoine, and free proteinogenic amino acids from the three strains during mid exponential growth, i. e. after 10 h (Fig. 3). […]"}, "C. glutamicum [2]": {"test_system": "C. glutamicum", "experiment": "Microbioreactor cultivation at different initial ectoine levels (growth, on-line OD620)", "type": "cell-based, Corynebacterium glutamicum ATCC 13032", "conditions": "30°C", "protocol": "Cultivation of C. glutamicum in microbioreactors. Screening of C. glutamicum strains was carried out in 48-well flower plates with transparent bottom for online biomass sensing using a microbioreactor (BioLector, Beckman Coulter GmbH, Baesweiler, Germany, Baesweiler, Germany) at 1,300 rpm, 85% humidity and different temperatures, as given below. Two subsequent pre-cultures were conducted in shake flasks as described above. For main cultures, each well of the microtiter plate was filled with 1 mL of minimal glucose medium and inoculated to an initial OD660 of 0.5. Over the course of the cultivation, biomass was measured online as light backscatter at 620 nm. All experiments were conducted as triplicate.\nIn a first experiment the inventors examined if C. glutamicum, expressing ectD from P. stutzeri, can convert externally supplied ectoine into hydroxyectoine and, beneficially, excrete the latter (Fig. 1c). […]"}, "[3]": {"conditions": "hydroxyectoine producers, glucose + 5 mM ectoine"}}, "data": [{"smiles": "CC1=NC(C(=O)O)CCN1", "note": "(stereo not drawn) [ectoine, 1,4,5,6-tetrahydro-2-methyl-4-pyrimidinecarboxylic acid]", "values": [{"measurement": "reduction of intracellular I-glutamic acid", "setting": "C. glutamicum [1]; MSM strain, glucose + 5 mM ectoine, versus control without ectoine", "result": "up to 47%"}, {"measurement": "intracellular pools of I-glutamic acid, I-glutamine, and I-proline", "setting": "C. glutamicum [1]; ectoine added to non-producing control strain with empty pCES vector, 5 mM", "result": "strongly reduced"}, {"measurement": "drop of intracellular level of I-glutamine", "setting": "C. glutamicum [1]; [3]", "result": "up to 61%"}, {"measurement": "drop of intracellular level of I-proline", "setting": "C. glutamicum [1]; [3]", "result": "up to 50%"}, {"measurement": "cell fitness", "setting": "C. glutamicum [2]; increasing ectoine concentration, strains expressing MSM, VSA, HEL, SCO EctD variants", "result": "unchanged"}, {"measurement": "cell fitness (specific growth rate)", "setting": "C. glutamicum [2]; initial ectoine 5, 10, 15 mM, strains pClik and pCES PtufectD^PST", "result": "not affected"}]}]}
